Laboratory results taken from US11420947B2, “(S)-n-hydroxy-2-(2-(4-methoxyphenyl)butanamido)thiazole-5-carboxamide and pharmaceutically acceptable salts thereof” (TRANSLATIONAL DRUG DEVELOPMENT, LLC, priority 2018, dated 2022).

Legend:
Assay in all cases: CellTiter-Glo cell viability assay
Assay type in all cases: cell-based
A204 = conditions: for IC50: Homo sapiens, A204, RHABDOMYOSARCOMA, Muscle, 72 hours
Summary of the method: (§1)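 ATP-based luminescence read-out after 72 h compound exposure. Seeding 2.5×10^3–5×10^3 cells/well, 24 h recovery before dosing. % growth = test/vehicle ×100; IC50 from four-parameter fit.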

A375 = conditions: for IC50: Homo sapiens, A-375, A375, MELANOMA, Malignant Melanoma, 72 hours
Summary of the method: as §1

DOHH-2 = conditions: for IC50: Homo sapiens, DOHH-2, HEMATOPIETIC, Lymphoma, 72 hours
Summary of the method: as §1

FaDu = conditions: for IC50: Homo sapiens, FaDu, H&N SQUAMOUS CELL, Pharynx, 72 hours
Summary of the method: as §1

H23 = conditions: for IC50: Homo sapiens, NCI-H23, H23, LUNG, NSCLC, 72 hours
Summary of the method: as §1

H522 = conditions: for IC50: Homo sapiens, NCI-H522, H522, LUNG, NSCLC, 72 hours
Summary of the method: as §1

HCC1806 = conditions: for IC50: Homo sapiens, HCC1806, BREAST, acantholytic squamous cell carcinoma, 72 hours
Summary of the method: as §1

HCC70 = conditions: for IC50: Homo sapiens, HCC70, BREAST, TNBC, 72 hours
Summary of the method: as §1

Hec-1A = conditions: for IC50: Homo sapiens, Hec-1A, ENDOMETRIAL, 72 hours
Summary of the method: as §1

HepG2 = conditions: for IC50: Homo sapiens, HepG2, LIVER, HCC, 72 hours
Summary of the method: as §1

Hs852T = conditions: for IC50: Hs852T, MELANOMA, 72 hours
Summary of the method: as §1

K562 = conditions: for IC50: Homo sapiens, K562, HEMATOPIETIC, CML, 72 hours
Summary of the method: as §1

MFE296 = conditions: for IC50: Homo sapiens, MFE-296, MFE296, ENDOMETRIAL, Endometrial, 72 hours
Summary of the method: as §1

MM1.S = conditions: for IC50: Homo sapiens, MM1.S, HEMATOPIETIC, MM, 72 hours
Summary of the method: as §1

MSTO-211H = conditions: for IC50: Homo sapiens, MSTO-211H, LUNG, Mesothelioma, 72 hours
Summary of the method: as §1

MeWo = conditions: for IC50: Homo sapiens, MeWo, MELANOMA, LN Met, 72 hours
Summary of the method: as §1

NCI-H820 = conditions: for IC50: NCI-H820, LUNG, NSCLC, 72 hours
Summary of the method: as §1

RPMI-8226 = conditions: for IC50: Homo sapiens, RPMI-8226, HEMATOPIETIC, MM, 72 hours
Summary of the method: as §1

SKUT-1 = conditions: for IC50: Homo sapiens, SK-UT-1, SKUT-1, ENDOMETRIAL, Uterine, 72 hours
Summary of the method: as §1

Compound `CCC(C(=O)Nc1ncc(C(=O)NO)s1)c1ccc(OC)cc1` (racemic) [#1, N-hydroxy-2-(2-(4-methoxyphenyl)butanamido)thiazole-5-carboxamide] has an IC50 (A204) of 33 nM, an IC50 (A375) of 269 nM and an IC50 (DOHH-2) of 16 nM. It also gave an IC50 (FaDu) of 10 nM, an IC50 (H23) of 76 nM and an IC50 (H522) of 178 nM. For the same compound, the IC50 (HCC1806) was 179 nM, the IC50 (HCC70) was 100 nM and the IC50 (Hec-1A) was 56 nM. For the same compound, the IC50 (HepG2) was 215 nM, the IC50 (Hs852T) was 490 nM and the IC50 (K562) was 145 nM. It also gave an IC50 (MFE296) of 52 nM, an IC50 (MM1.S) of 33 nM and an IC50 (MSTO-211H) of 128 nM. It also gave an IC50 (MeWo) of 158 nM, an IC50 (NCI-H820) of 85 nM and an IC50 (RPMI-8226) of 31 nM. For the same compound, the IC50 (SKUT-1) was 229 nM.
With `CC[C@H](C(=O)Nc1ncc(C(=O)NO)s1)c1ccc(OC)cc1` [#1a, (S)—N-hydroxy-2-(2-(4-methoxyphenyl)butanamido)thiazole-5-carboxamide] the IC50 (A204) was 54 nM, the “#1/#1a” value (A204; ratio of IC50, A204) was 0.61 and the “#1b/#1a” value (A204; ratio of IC50, A204) was 3.15. The IC50 (A375) was 32 nM, the “#1/#1a” value (A375; ratio of IC50, A375) was 8.41 and the “#1b/#1a” value (A375; ratio of IC50, A375) was 20.34. The IC50 (DOHH-2) was 17 nM, the “#1/#1a” value (DOHH-2; ratio of IC50, DOHH-2) was 0.94 and the “#1b/#1a” value (DOHH-2; ratio of IC50, DOHH-2) was 7.94. For the same compound, the IC50 (FaDu) was 40 nM, the “#1/#1a” value (FaDu; ratio of IC50, FaDu) was 0.25 and the “#1b/#1a” value (FaDu; ratio of IC50, FaDu) was 8.28. The IC50 (H23) was 47 nM, the “#1/#1a” value (H23; ratio of IC50, H23) was 1.62 and the “#1b/#1a” value (H23; ratio of IC50, H23) was 9.02. The IC50 (H522) was 115 nM, the “#1/#1a” value (H522; ratio of IC50, H522) was 1.55 and the “#1b/#1a” value (H522; ratio of IC50, H522) was 8.5. The IC50 (HCC1806) was 71 nM, the “#1/#1a” value (HCC1806; ratio of IC50, HCC1806) was 2.52 and the “#1b/#1a” value (HCC1806; ratio of IC50, HCC1806) was 6.55. For the same compound, the IC50 (HCC70) was 52 nM, the “#1/#1a” value (HCC70; ratio of IC50, HCC70) was 1.92 and the “#1b/#1a” value (HCC70; ratio of IC50, HCC70) was 6.56. For the same compound, the IC50 (Hec-1A) was 37 nM, the “#1/#1a” value (Hec-1A; ratio of IC50, Hec-1A) was 1.51 and the “#1b/#1a” value (Hec-1A; ratio of IC50, Hec-1A) was 8.35. For the same compound, the IC50 (HepG2) was 76 nM, the “#1/#1a” value (HepG2; ratio of IC50, HepG2) was 2.83 and the “#1b/#1a” value (HepG2; ratio of IC50, HepG2) was 8.3. The IC50 (Hs852T) was 54 nM, the “#1/#1a” value (Hs852T; ratio of IC50, Hs852T) was 9.07 and the “#1b/#1a” value (Hs852T; ratio of IC50, Hs852T) was 22.96. The IC50 (K562) was 78 nM, the “#1/#1a” value (K562; ratio of IC50, K562) was 1.86 and the “#1b/#1a” value (K562; ratio of IC50, K562) was 5.1. The IC50 (MFE296) was 35 nM, the “#1/#1a” value (MFE296; ratio of IC50, MFE296) was 1.49 and the “#1b/#1a” value (MFE296; ratio of IC50, MFE296) was 5.83. For the same compound, the IC50 (MM1.S) was 12 nM, the “#1/#1a” value (MM1.S; ratio of IC50, MM1.S) was 2.75 and the “#1b/#1a” value (MM1.S; ratio of IC50, MM1.S) was 5.92. For the same compound, the IC50 (MSTO-211H) was 52 nM, the “#1/#1a” value (MSTO-211H; ratio of IC50, MSTO-211H) was 2.46 and the “#1b/#1a” value (MSTO-211H; ratio of IC50, MSTO-211H) was 6.77. The IC50 (MeWo) was 83 nM, the “#1/#1a” value (MeWo; ratio of IC50, MeWo) was 1.9 and the “#1b/#1a” value (MeWo; ratio of IC50, MeWo) was 7.37. For the same compound, the IC50 (NCI-H820) was 54 nM, the “#1/#1a” value (NCI-H820; ratio of IC50, NCI-H820) was 1.57 and the “#1b/#1a” value (NCI-H820; ratio of IC50, NCI-H820) was 7.37. For the same compound, the IC50 (RPMI-8226) was 14 nM, the “#1/#1a” value (RPMI-8226; ratio of IC50, RPMI-8226) was 2.21 and the “#1b/#1a” value (RPMI-8226; ratio of IC50, RPMI-8226) was 9.21. The IC50 (SKUT-1) was 215 nM, the “#1/#1a” value (SKUT-1; ratio of IC50, SKUT-1) was 1.07 and the “#1b/#1a” value (SKUT-1; ratio of IC50, SKUT-1) was 5.86.
With `CC[C@@H](C(=O)Nc1ncc(C(=O)NO)s1)c1ccc(OC)cc1` [#1b, (R)—N-hydroxy-2-(2-(4-methoxyphenyl)butanamido)thiazole-5-carboxamide] the IC50 (A204) was 170 nM, the IC50 (A375) was 651 nM and the IC50 (DOHH-2) was 135 nM. For the same compound, the IC50 (FaDu) was 331 nM, the IC50 (H23) was 424 nM and the IC50 (H522) was 977 nM. It also gave an IC50 (HCC1806) of 465 nM, an IC50 (HCC70) of 341 nM and an IC50 (Hec-1A) of 309 nM. The IC50 (HepG2) was 631 nM, the IC50 (Hs852T) was 1240 nM and the IC50 (K562) was 398 nM. It also gave an IC50 (MFE296) of 204 nM, an IC50 (MM1.S) of 71 nM and an IC50 (MSTO-211H) of 352 nM. For the same compound, the IC50 (MeWo) was 612 nM, the IC50 (NCI-H820) was 398 nM and the IC50 (RPMI-8226) was 129 nM. The IC50 (SKUT-1) was 1260 nM.
